This passage reports EC50 results from publication PMC2964380 (Bioorganic & medicinal chemistry, 2010).

Where two headings read alike, the source gives them in different places.

Assay [1] deals with HIV-1 (IIIB). Kind of assay: Inhibition of HIV-1. It counts as cell-based. The settings on record: Human immunodeficiency virus 1, IIIB, MT2, 120 h, read-out: Cell-Culture EC50.
The test system of assay [2] is HIV-1 (IIIB). The settings on record: MT-2 cell culture, MTT assay; cited from earlier work. A general note: Tetrazolium assays rely on reduction of a dye to a coloured formazan, in cell work by metabolically active cells.

For orientation: EC50 means the concentration giving half of the maximal effect. Take `COc1ccc(OC)c(CCNC(=S)Nc2ccc(Br)cn2)c1` [HI-236]: in the assay with HIV-1 (IIIB) [1], the EC50 stood at 42 nM. Consider `Cc1cn([C@H]2C=C[C@@H](CO)O2)c(=O)[nH]c1=O` [d4T], for which, in the assay on HIV-1 (IIIB) [2], the concentration for a half-maximal effect (EC50) is 2000 nM.
